“And” between values parts separate entries of the source, which are not always exact repeats. Identical values can stand only once. Inconclusive results and toxic doses are left out. How the source made its calls: active means survival T/C of 150% or more; inactive means T/C below 125% in these data.
Tested on: CD2F1 mice, L1210 leukemia ip, survival T/C
Experiment: NCI In Vivo Anticancer Drug Screen. Data for tumor model L1210 Leukemia (intraperitoneal) in CD2F1 (CDF1) mice
Conditions: higher = longer survival
Summary of the method: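 Mice carrying a transplanted tumor received test compound or vehicle alone. The value is the measurement in the treated group divided by that in the vehicle-treated control group.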

[1] = endpoint: mean survival time, dose: 6.25 mg/kg/injection, schedule: Q01DX009 (ip), vehicle: saline
[2] = endpoint: mean survival time, dose: 25.0 mg/kg/injection, schedule: Q01DX009 (ip), vehicle: saline
[3] = endpoint: mean survival time, dose: 50.0 mg/kg/injection, schedule: Q01DX009 (ip), vehicle: saline
[4] = endpoint: mean survival time, dose: 100.0 mg/kg/injection, schedule: Q01DX009 (ip), vehicle: saline
[5] = endpoint: mean survival time, dose: 200.0 mg/kg/injection, schedule: Q01DX009 (ip), vehicle: saline
[6] = endpoint: mean survival time, dose: 100.0 mg/kg/injection, schedule: Q01DX009 (ip), vehicle: saline with Tween-80
[7] = endpoint: mean survival time, dose: 200.0 mg/kg/injection, schedule: Q01DX009 (ip), vehicle: saline with Tween-80
[8] = endpoint: mean survival time, dose: 100.0 mg/kg/injection, schedule: Q04DX003 (ip), vehicle: saline
[9] = endpoint: mean survival time, dose: 100.0 mg/kg/injection, schedule: Q04DX003 (ip), vehicle: saline with Tween-80
[10] = endpoint: mean survival time, dose: 200.0 mg/kg/injection, schedule: Q04DX003 (ip), vehicle: saline with Tween-80
[11] = endpoint: mean survival time, dose: 400.0 mg/kg/injection, schedule: Q01DX009 (ip), vehicle: saline with Tween-80
[12] = endpoint: mean survival time, dose: 400.0 mg/kg/injection, schedule: Q04DX003 (ip), vehicle: saline with Tween-80

Measured: T/C

O=C(/C=C/C(=O)c1ccccc1)c1ccccc1
inactive: endpoint: mean survival time, dose: 6.25 mg/kg/injection, schedule: Q01DX001 (ip), vehicle: saline with Tween-80 92 % of control | endpoint: mean survival time, dose: 12.5 mg/kg/injection, schedule: Q01DX001 (ip), vehicle: saline with Tween-80 107 % of control | endpoint: mean survival time, dose: 25.0 mg/kg/injection, schedule: Q01DX001 (ip), vehicle: saline with Tween-80 96 % of control | endpoint: mean survival time, dose: 50.0 mg/kg/injection, schedule: Q01DX001 (ip), vehicle: saline with Tween-80 89 % of control | endpoint: mean survival time, dose: 100.0 mg/kg/injection, schedule: Q01DX001 (ip), vehicle: saline with Tween-80 94 % of control

CN(Cc1cnc2nc(N)nc(N)c2n1)c1ccc(C(=O)NC(CCP(=O)(O)O)P(=O)(O)O)cc1 (stereo unspecified)
inactive: endpoint: median survival time, dose: 0.38 mg/kg/injection, schedule: Q01DX009 (ip), vehicle: saline 101 % of control | endpoint: median survival time, dose: 0.75 mg/kg/injection, schedule: Q01DX009 (ip), vehicle: saline 101 % of control | endpoint: median survival time, dose: 1.5 mg/kg/injection, schedule: Q01DX009 (ip), vehicle: saline 98 % of control | endpoint: median survival time, dose: 3.0 mg/kg/injection, schedule: Q01DX009 (ip), vehicle: saline 102 % of control | endpoint: median survival time, dose: 6.0 mg/kg/injection, schedule: Q01DX009 (ip), vehicle: saline 102 % of control | endpoint: median survival time, dose: 12.0 mg/kg/injection, schedule: Q01DX009 (ip), vehicle: saline 101 % of control

COc1ccc(Nc2ccnc3cc(Cl)ccc23)cc1CN(CCCl)CCCl
inactive: [1] 117 % of control | [2] 88 % of control

CC1C2CCC(C2)C1CO (stereo unspecified)
inactive: [3] 102 % of control | [4] 98 % of control | [5] 104 % of control

S=c1nccc[nH]1
inactive: endpoint: mean survival time, dose: 100.0 mg/kg/injection, schedule: Q04DX002 (ip), vehicle: saline with Tween-80 105 % of control

CCCN(CCC)C(=O)c1cccnc1
inactive: [4] 92 % of control | [5] 92 % of control | endpoint: mean survival time, dose: 400.0 mg/kg/injection, schedule: Q01DX009 (ip), vehicle: saline 97 % of control

CC(=O)Nc1ccc(OCCOC(=O)Nc2ccc(C)c([N+](=O)[O-])c2)cc1
inactive: endpoint: mean survival time, dose: 12.5 mg/kg/injection, schedule: Q01DX009 (ip), vehicle: saline with Tween-80 92 % of control | endpoint: mean survival time, dose: 25.0 mg/kg/injection, schedule: Q01DX009 (ip), vehicle: saline with Tween-80 88 % of control | endpoint: mean survival time, dose: 50.0 mg/kg/injection, schedule: Q01DX009 (ip), vehicle: saline with Tween-80 92 % of control

CN(C)N=Nc1ccc(NC=O)cc1
inactive: endpoint: mean survival time, dose: 4.68 mg/kg/injection, schedule: Q01DX009 (ip), vehicle: Klucel (hydroxypropylcellulose) (HPC) 104 % of control | endpoint: mean survival time, dose: 9.37 mg/kg/injection, schedule: Q01DX009 (ip), vehicle: Klucel (hydroxypropylcellulose) (HPC) 115 % of control and 110 % of control

CCOC(=O)Nc1cc2c(c(N)n1)N=C(c1ccccc1)CO2
inactive: endpoint: median survival time, dose: 25.0 mg/kg/injection, schedule: Q01DX009 (ip), vehicle: saline with Tween-80 97 % of control | endpoint: median survival time, dose: 50.0 mg/kg/injection, schedule: Q01DX009 (ip), vehicle: saline with Tween-80 117 % of control and 107 % of control and 108 % of control | endpoint: median survival time, dose: 100.0 mg/kg/injection, schedule: Q01DX009 (ip), vehicle: saline with Tween-80 122 % of control and 112 % of control (2×) | endpoint: median survival time, dose: 200.0 mg/kg/injection, schedule: Q01DX009 (ip), vehicle: saline with Tween-80 115 % of control and 116 % of control and 117 % of control

C1CNCOC1
inactive: [1] 100 % of control | endpoint: mean survival time, dose: 12.5 mg/kg/injection, schedule: Q01DX009 (ip), vehicle: saline 95 % of control and 97 % of control | [2] 100 % of control and 102 % of control | [3] 101 % of control and 110 % of control | [4] 106 % of control and 107 % of control | [5] 100 % of control | endpoint: median survival time, dose: 6.25 mg/kg/injection, schedule: Q01DX009 (ip), vehicle: saline 100 % of control | endpoint: median survival time, dose: 12.5 mg/kg/injection, schedule: Q01DX009 (ip), vehicle: saline 102 % of control | endpoint: median survival time, dose: 25.0 mg/kg/injection, schedule: Q01DX009 (ip), vehicle: saline 107 % of control | endpoint: median survival time, dose: 50.0 mg/kg/injection, schedule: Q01DX009 (ip), vehicle: saline 107 % of control | endpoint: median survival time, dose: 100.0 mg/kg/injection, schedule: Q01DX009 (ip), vehicle: saline 112 % of control

C=CCNC(=O)OCC
inactive: [6] 100 % of control | [7] 98 % of control

Cc1nc2c(n1C)C(=O)c1ccccc1C2=O
inactive: [8] 101 % of control

O=C(O)Cc1c[nH]c2ccc(O)cc12
inactive: [6] 98 % of control | [9] 105 % of control | [7] 96 % of control | [10] 100 % of control | [11] 95 % of control | [12] 100 % of control

O=C(COc1cccc(Cl)c1)NCc1ccccc1NC(=O)CBr
inactive: endpoint: mean survival time, dose: 2.35 mg/kg/injection, schedule: Q01DX001 (ip), vehicle: saline with Tween-80 101 % of control | endpoint: mean survival time, dose: 4.7 mg/kg/injection, schedule: Q01DX001 (ip), vehicle: saline with Tween-80 97 % of control | endpoint: mean survival time, dose: 9.4 mg/kg/injection, schedule: Q01DX001 (ip), vehicle: saline with Tween-80 92 % of control

O=S(=O)(O)c1ccc(Nc2ccccc2)cc1
inactive: [6] 105 % of control | [8] 104 % of control | [7] 97 % of control | endpoint: mean survival time, dose: 200.0 mg/kg/injection, schedule: Q04DX003 (ip), vehicle: saline 106 % of control | [11] 103 % of control | endpoint: mean survival time, dose: 400.0 mg/kg/injection, schedule: Q04DX003 (ip), vehicle: saline 100 % of control

COc1ccc(OC)c(CC(C(C)=O)C(C)=O)c1
inactive: endpoint: mean survival time, dose: 12.5 mg/kg/injection, schedule: Q01DX009 (ip), vehicle: water 100 % of control | endpoint: mean survival time, dose: 25.0 mg/kg/injection, schedule: Q01DX009 (ip), vehicle: water 96 % of control | endpoint: mean survival time, dose: 50.0 mg/kg/injection, schedule: Q01DX009 (ip), vehicle: water 100 % of control | endpoint: mean survival time, dose: 100.0 mg/kg/injection, schedule: Q01DX009 (ip), vehicle: water 98 % of control | endpoint: mean survival time, dose: 200.0 mg/kg/injection, schedule: Q01DX009 (ip), vehicle: water 95 % of control

CCCCCCCCCC1=NC(C)(C)CN1C(C)(C)CO
inactive: endpoint: mean survival time, dose: 1.25 mg/kg/injection, schedule: Q01DX009 (ip), vehicle: saline with Tween-80 106 % of control | endpoint: mean survival time, dose: 2.5 mg/kg/injection, schedule: Q01DX009 (ip), vehicle: saline with Tween-80 109 % of control | endpoint: mean survival time, dose: 5.0 mg/kg/injection, schedule: Q01DX009 (ip), vehicle: saline with Tween-80 91 % of control

CC(C)(C)N[P+](Cc1ccccc1)(NC(C)(C)C)c1ccccc1
inactive: endpoint: mean survival time, dose: 12.5 mg/kg/injection, schedule: Q04DX003 (ip), vehicle: saline with Tween-80 90 % of control | endpoint: mean survival time, dose: 25.0 mg/kg/injection, schedule: Q04DX003 (ip), vehicle: saline with Tween-80 90 % of control

C=CCC(C)(C)/C=N/N
inactive: endpoint: mean survival time, dose: 37.5 mg/kg/injection, schedule: Q01DX009 (ip), vehicle: saline 101 % of control | endpoint: mean survival time, dose: 75.0 mg/kg/injection, schedule: Q01DX001 (ip), vehicle: saline 95 % of control | endpoint: mean survival time, dose: 75.0 mg/kg/injection, schedule: Q01DX009 (ip), vehicle: saline 100 % of control | endpoint: mean survival time, dose: 150.0 mg/kg/injection, schedule: Q01DX001 (ip), vehicle: saline 98 % of control | endpoint: mean survival time, dose: 150.0 mg/kg/injection, schedule: Q01DX009 (ip), vehicle: saline 107 % of control

N=Cc1c(O)n(C2CCCCC2)c(=O)[nH]c1=O
inactive: [6] 98 % of control | [9] 93 % of control | [7] 94 % of control | [10] 93 % of control | [11] 98 % of control | [12] 91 % of control

N#CCc1ccccc1
inactive: endpoint: mean survival time, dose: 10.0 mg/kg/injection, schedule: Q01DX001 (ip), vehicle: saline 105 % of control | endpoint: mean survival time, dose: 20.0 mg/kg/injection, schedule: Q01DX001 (ip), vehicle: saline 105 % of control

From PubChem BioAssay AID256 (DTP/NCI, 2004)
